The text below walks through data of PubChem BioAssay AID624269 (Broad Institute, 2012).

Activity calls are given as the source filed them. How the calls were made is not given here.

A short description of test [1]: Quorum LuxO agonist, light production in absence of autoinducers, Vibrio cholerae, confirmatory (AID 624269). The note with it: Vibrio cholerae BH1651 luxOD47E, luciferase light induction, 6 h.
The test system of test [2] is Vibrio cholerae BH1651 luxOD47E, luciferase light induction, 6 h. The test is described as above.

`Cc1ccc(CC(=O)NC2CCCC2)cc1`: the activation in test [1] (at 35 µM (top of the series)) is 0% (inactive).
As to `COc1ccc(Cl)cc1NC(=O)COC(=O)c1ccc(C)o1`, the activation in test [1] (at 35 µM (top of the series)) is 0% (inactive).
Take `O=C(Cc1ccc(-c2ccccc2)cc1)NC1CCCC1`: in test [2], the AC40 was 239 nM.
With `CCn1nnnc1NCc1ccc(N2CCCC2)cc1`, the activation in test [1] (at 35 µM (top of the series)) is 66.7% (inactive).
`CCCn1nnnc1NCc1ccc(C(C)C)cc1`: the activation in test [1] (at 35 µM (top of the series)) was 33.3% (inactive).
Regarding `COc1ccccc1NC(=O)COC(=O)c1cc2c(s1)CCC2`, in test [1] (at 35 µM (top of the series)), the activation is 0% (inactive).
`COc1ccccc1NC(=O)COC(=O)c1oc2ccccc2c1C`: the activation in test [1] (at 35 µM (top of the series)) was 0% (inactive).
Still for that read-out and setting: under `CCCn1nnnc1NCc1ccc(N2CCCC2)cc1` stands -50% (inactive); under `CCC(C)NC(=O)Cc1ccc(-c2ccccc2)cc1` (stereo not given), -33.3% (inactive).
Turning to `O=C(Nc1nnc(-c2ccc3c(c2)OCCO3)o1)C1CCCCC1`, the AC40 in test [2] is 0.865 nM.
Regarding `Cc1c(Cl)cccc1-n1cnc(=O)c2ccccc21`, in test [1] (at 35 µM (top of the series)), the activation is 50% (inactive).
As to `Cc1ccc2cc3c(NC(=O)c4ccco4)nn(C)c3nc2c1`, in test [2], the AC40 was > 35000 nM (inactive).
As for `CCn1c(CC(=O)Nc2cccc(Cl)c2Cl)nnc1SCCOc1ccc(OC)cc1`, the activation in test [1] (at 35 µM (top of the series)) was -50% (inactive).
For `O=c1ncn(-c2cccc(Cl)c2)c2ccccc12`, the activation in test [1] (at 8 µM (top of the series)) was 0% (inactive).
In the case of `COc1ccccc1NC(=O)COC(=O)c1ccc(C)cc1`, the activation in test [1] (at 35 µM (top of the series)) was 0% (inactive).
In the case of `Cc1ccc(OCCNC(=O)c2cccc(C)c2)cc1`, in test [2], the AC40 is 312 nM.
With `CCCn1nnnc1NCc1ccc(N(CC)CC)cc1`, the activation in test [1] (at 35 µM (top of the series)) was 0% (inactive).
Take `CCOc1ccc(Nc2ccc3nonc3c2[N+](=O)[O-])cc1`: the activation in test [1] (at 35 µM (top of the series)) was 0% (inactive).
Regarding `CCn1nnc(NCc2ccc(C)cc2)n1`, in test [1] (at 35 µM (top of the series)), the activation was 0% (inactive).
In the case of `CCCn1nnnc1NCc1ccccc1Cl`, the activation in test [1] (at 8 µM (top of the series)) is 0% (inactive).
